Data reported in PubChem BioAssay AID602132 (Sanford-Burnham Center for Chemical Genomics, 2011).
Calls of active or inactive are those of the source. How the calls were made is not given here.

These compounds were tested against glucose-6-phosphate dehydrogenase-6-phosphogluconolactonase [Plasmodium falciparum 3D7] (assay: PfG6PD enzyme inhibitors, orthogonal readout, SAR follow-up, orthogonal assay for PfG6PD antimalarial inhibitor project, biochemical, direct NADPH end-point detection, set 2 (AID 602132)). Settings: recombinant PfG6PD.

Structure (SMILES)	IC50
CCN1CCCC1CNC(=O)c1ccc2c(c1)NC(=O)/C(=C/c1ccc(F)cc1)S2 (stereo unspecified)	> 80 µM (inactive)
CN(C)c1ccccc1CNC(=O)c1ccc2c(c1)NC(=O)/C(=C/c1ccccc1F)S2	> 80 µM (inactive)
NCCNC(=O)c1ccc2c(c1)NC(=O)c1ccccc1S2	> 80 µM (inactive)
CCN1CCCC1CNC(=O)c1ccc2c(c1)NC(=O)/C(=C/c1cccc(F)c1)S2 (stereo unspecified)	> 80 µM (inactive)
O=C1Nc2cc(C(=O)NCC3CCCN3)ccc2S/C1=C\c1ccccc1F (stereo unspecified)	> 80 µM (inactive)
O=C(NCCN1CCCCC1)c1ccc2c(c1)NC(=O)c1ccccc1S2	25.4 µM
CCN(CC)CCCC(C)Nc1ccnc2cc(Cl)ccc12 (stereo unspecified)	> 80 µM (inactive)
CCN1CCC[C@H]1CNC(=O)c1ccc2c(c1)NC(=O)c1ccccc1S2	64.8 µM
CCC(C)N1CCCC1CNC(=O)c1ccc2c(c1)NC(=O)c1ccccc1S2 (stereo unspecified)	> 80 µM (inactive)
CCN1CCCC1CNC(=O)c1ccc2c(c1)NC(=O)C(Cc1ccccc1F)S2 (stereo unspecified)	> 80 µM (inactive)
O=C(NCCNC1CCCCC1)c1ccc2c(c1)NC(=O)c1ccccc1S2	> 80 µM (inactive)
CCN1CCCC1CNC(=O)c1ccc2c(c1)NC(=O)/C(=C/c1cccc(F)c1F)S2 (stereo unspecified)	> 80 µM (inactive)
CC(C)(C)OC(=O)N1CCCC1CNC(=O)c1ccc2c(c1)NC(=O)/C(=C/c1ccccc1F)S2 (stereo unspecified)	> 80 µM (inactive)
CCN1CCCC1CNC(=O)c1ccc2c(c1)NC(=O)/C(=C/c1ccc3ccccc3c1)S2 (stereo unspecified)	> 80 µM (inactive)
NC1CCN(C(=O)c2ccc3c(c2)NC(=O)/C(=C/c2ccccc2F)S3)C1 (stereo unspecified)	> 80 µM (inactive)
CCN1CCCC1CNC(=O)c1ccc2c(c1)NC(=O)/C(=C/c1c(F)cccc1F)S2 (stereo unspecified)	> 80 µM (inactive)
CCCN1CCCC1CNC(=O)c1ccc2c(c1)NC(=O)/C(=C/c1ccccc1F)S2 (stereo unspecified)	> 80 µM (inactive)
CCN1CCC[C@@H]1CNC(=O)c1ccc2c(c1)NC(=O)c1ccccc1S2	6.69 µM
O=C(NCCN1CCOCC1)c1ccc2c(c1)NC(=O)c1ccccc1S2	> 80 µM (inactive)
CCC(C)N(CCNC(=O)c1ccc2c(c1)NC(=O)c1ccccc1S2)C1CCCCC1 (stereo unspecified)	25 µM
NC1CCN(C(=O)c2ccc3c(c2)NC(=O)c2ccccc2S3)C1 (stereo unspecified)	> 80 µM (inactive)
